Laboratory results from patent publication US9993554B2 (CENTRO NACIONAL DE INVESTIGACIONES ONCOLOGICAS (CNIO), priority 2010, dated 2018).

Test system: phospho-Ser-473-Akt
Assay: AKT phosphorylation inhibition, Western blot cell assay
Type: cell-based
Details: Homo sapiens; read-out: IC50, cell assay (p-AKT Western Blot)
Method: The cell lines were obtained from the American Type Culture Collection (ATCC). U2OS (human osteosarcoma) was cultured in Dulbecco's modified Eagle's medium (DMEM). PC3 (human prostate carcinoma), MCF7 (human breast cardinoma), HCT116 (human colon carcinoma), 768-0 (human neuroblastoma), U251 (human glyoblastoma) were grown in RPMI. All media were supplemented with 10% fetal bovine serum (FBS) (Sigma) and antibiotics-antimycotics. Cell were maintained in a humidified incubator at 37° C. with 5% CO2 and passaged when confluent using trypsin/EDTA.
Subconfluent cells were incubated under different conditions and washed twice with TBS prior to lysis. Lysis buffer was added containing 50 mM Tris HCl, 150 mM NaCl, 1% NP-40, 2 mM Na3VO4, 100 mM NaF, 20 mM Na4P2O7 and protease inhibitor cocktail (Roche Molecular Biochemicals). The proteins were resolved on 10% SDS-PAGE and transferred to nitrocellulose membrane (Schleicher & Schuell, Dassel, Germany). The membranes were incubated overnight at 4° C. with antibodies specific for Akt, phospho-Ser-473-Akt (Cell Signaling Technology) and α-tubulin (Sigma), they were washed and then incubated with IRDye800 conjugated anti-mouse and Alexa Fluor 680 goat anti-rabbit IgG secondary antibodies. The bands were visualized using an Odyssey infrared imaging system (Li-Cor Biosciences).

Structure (SMILES): CS(=O)(=O)N1CCN(Cc2cn3c(Cl)c(-c4cnc(N)nc4)nc(N4CCOCC4)c3n2)CC1 [Compound A]
- IC50: 5 nM
